Experimental data reported in patent US20250195521A1 (Revolution Medicines, Inc., priority 2020, published 2025).

What was measured:
[1] = system: PAN02 tumors (SHP2 G503V); test: PAN02 syngeneic tumor model (Example 2); format: in vivo, mouse; conditions: PAN02, immunocompetent mice; Compound SOS1-(A) 100 mg/kg daily oral
[2] = system: PAN02 tumors (SHP2 G503V); test: PAN02 syngeneic tumor model (Example 5); format: in vivo, mouse; conditions: 100 mg/kg po qd and 250 mg/kg po qd
Experimental: (§1) Mice were implanted with (A) PAN02 tumor cells (1e6 cells/mouse) or (B) LN229 tumor cells in 50% matrigel (10e6 cells/mouse) subcutaneously in the flank. Once tumors reached an average size of ˜200 mm^3 mice were randomized to treatment groups and administration of test article or vehicle (2% HPMC E-50, 0.5% Tween-80 in 50 mM Sodium Citrate Buffer, pH 4.0). Body weight and tumor volume (using digital calipers) were measured twice a week until study endpoints. Compounds were administered by oral gavage daily.

LN229 tumors (SHP2 A72S) = test: LN229 CDX xenograft model (Example 5); format: in vivo, mouse; conditions: 100 mg/kg po qd
Experimental: as §1

[3] = biological target: NRAS G12C binding to BRAF RBD (Homo sapiens (Human), UniProt P01111+P62937, G12C); test: Ras-Raf disruption/FRET/MOA assay, NRAS G12C; format: biochemical
Procedure, shortened: (§2)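 TR-FRET ratio drop relative to DMSO wells marks disruption of the Ras–RAF complex, reported as IC50. Compounds promote a Ras(nucleotide)–cyclophilin A ternary complex that blocks BRAF RBD binding; dosing was 10 points, 3-fold, top 30 μM final, 3 h at 25° C before detection.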

[4] = biological target: KRAS G13C binding to BRAF RBD (Homo sapiens (Human), UniProt P01116+P62937, G13C); test: Ras-Raf disruption/FRET/MOA assay, KRAS G13C; format: biochemical
Description: Disruption of B-Raf Ras-binding Domain (BRAF^RBD) Interaction with K-Ras by Compounds of the Invention (also called a FRET assay or an MOA assay)
Note—The following protocol describes a procedure for monitoring disruption of K-Ras G12C(GMP-PNP) binding to BRAF^RBD by a compound of the invention. This protocol may also be executed substituting other Ras proteins or nucleotides.
(§3) The purpose of this biochemical assay was to measure the ability of test compounds to facilitate ternary complex formation between a nucleotide-loaded K-Ras isoform and Cyclophilin A; the resulting ternary complex disrupts binding to a BRAF^RBD construct, inhibiting K-Ras signaling through a RAF effector. Data is reported as IC50 values.
(§4) In assay buffer containing 25 mM HEPES pH 7.3, 0.002% Tween20, 0.1% BSA, 100 mM NaCl and 5 mM MgCl2, tagless Cyclophilin A, His6-K-Ras-GMPPNP, and GST-BRAF^RBD were combined in a 384-well assay plate at final concentrations of 25 μM, 12.5 nM and 50 nM, respectively. Compound was present in plate wells as a 10-point 3-fold dilution series starting at a final concentration of 30 μM. After incubation at 25° C. for 3 hours, a mixture of Anti-His Eu—W1024 and anti-GST allophycocyanin was then added to assay sample wells at final concentrations of 10 nM and 50 nM, respectively, and the reaction incubated for an additional 1.5 hours. […] Compounds that facilitate disruption of a K-Ras: RAF complex were identified as those eliciting a decrease in the TR-FRET ratio relative to DMSO control wells.

NCI-H358 cells = test: 72-hour proliferation assay using CellTiter-Glo, NCI-H358; format: cell-based, human; conditions: read-out: EC50, 72-hour proliferation assay
Experimental: The plate was placed in the Incucyte S3 live cell analysis system (37° C., 5% CO2) and confluence was measured by recording images at 6-hour intervals for a maximum of 40 days, or until wells reached maximal confluence. Media and drug were replaced at 3-4 day intervals. Data are plotted as % confluence over the time course of the experiment for each single agent and respective combination (FIG. 5).

[5] = biological target: KRAS WT binding to BRAF RBD (Homo sapiens (Human), UniProt P01116+P62937); test: Ras-Raf disruption/FRET/MOA assay, KRAS WT; format: biochemical
Procedure, shortened: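 Compounds (top 30 μM, 3-fold, 10 points) promote Cyclophilin A (25 μM) ternary complex with His6-Ras-GMPPNP (12.5 nM), disrupting GST-BRAF RBD (50 nM) binding; 3 h, 25°C, 25 mM HEPES pH 7.3, 100 mM NaCl, 5 mM MgCl2. Detection reagents (Eu anti-His 10 nM, APC anti-GST 50 nM) added for 1.5 h; IC50 reported.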

NCI-H358 (K-Ras G12C) = test: CellTiter-Glo cell viability assay, NCI-H358; format: cell-based, human; conditions: Homo sapiens, NCI-H358, 120 h, 5-day treatment; read-out: H358 Cell Viability assay data (K-Ras G12C, IC50)
Procedure, shortened: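 Viability is measured as ATP-dependent luminescence (CellTiter-Glo) five days into compound treatment. Responses are normalized to vehicle (DMSO) wells and fitted by four-parameter logistic regression.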

[6] = biological target: K-Ras G12C(GMP-PNP) binding to BRAF RBD (Homo sapiens (Human), UniProt P01116+P62937, G12C); test: Disruption of BRAF RBD interaction with K-Ras (FRET / MOA assay), K-Ras G12C; format: biochemical; conditions: read-out: KRAS G12C FRET IC50
Procedure, shortened: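 Cpd 10-pt 3-fold dilution, top 30 μM final; Ras/CypA/BRAF RBD mix 3 h, 25° C. Add anti-His Eu-W1024 10 nM + anti-GST APC 50 nM final, 1.5 h. Readout TR-FRET ratio decrease vs DMSO → IC50.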

[7] = system: K-Ras G12C (NCI-H358 cells); test: Potency assay: pERK in NCI-H358 cells; format: cell-based, human; conditions: Homo sapiens; NCI-H358 cells, 4 hours; read-out: pERK EC50 (H358 KRAS G12C)
Procedure, shortened: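 Cells plated the day before were exposed for 4 h at 37° C, 5% CO2 to a 10-point, 3-fold DMSO dilution series (10 mM top stock), in duplicate. Phospho-ERK was read by AlphaLISA SureFire Ultra or by In-Cell Western with DRAQ5 DNA stain, and IC50 came from a 4-parameter sigmoidal fit.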

[8] = biological target: KRAS G12S binding to BRAF RBD (Homo sapiens (Human), UniProt P01116+P62937, G12S); test: Ras-Raf disruption/FRET/MOA assay, KRAS G12S; format: biochemical
Procedure, shortened: as §2

KRAS WT = KRAS WT (Homo sapiens (Human), UniProt P01116+P62937); test: Ras-Raf disruption/FRET/MOA assay, KRAS WT; format: biochemical
Procedure, shortened: (§5)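 TR-FRET of nucleotide-loaded (GMP-PNP) His6-Ras (12.5 nM) binding to GST-BRAF RBD (50 nM) with Cyclophilin A (25 μM) in HEPES pH 7.3 buffer; 10-point 3-fold compound series from 30 μM, 3 h at 25 °C, then anti-His Eu/anti-GST APC 1.5 h. IC50 from decreased FRET ratio vs DMSO.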

KRAS G12S = KRAS G12S (Homo sapiens (Human), UniProt P01116+P62937, G12S); test: Ras-Raf disruption/FRET/MOA assay, KRAS G12S; format: biochemical
Procedure, shortened: as §5

KRAS Q61H = KRAS Q61H (Homo sapiens (Human), UniProt P01116+P62937, Q61H); test: Ras-Raf disruption/FRET/MOA assay, KRAS Q61H; format: biochemical
Description: (§6) Disruption of B-Raf Ras-Binding Domain (BRAF^RBD) Interaction with K-Ras by Compounds of the Invention (Also Called a FRET Assay or an MOA Assay)
(§7) Note—The following protocol describes a procedure for monitoring disruption of K-Ras G12C (GMP-PNP) binding to BRAF^RBD by a compound of the invention. This protocol may also be executed substituting other Ras proteins or nucleotides, such as K-Ras G12D and K-Ras G13D.
as §3
as §4, with “12.5 nM,” for “12.5 nM”, “of anti-His” for “of Anti-His”

KRAS G13C = KRAS G13C (Homo sapiens (Human), UniProt P01116+P62937, G13C); test: Ras-Raf disruption/FRET/MOA assay, KRAS G13C; format: biochemical
Procedure, shortened: as §5

KRAS G12D = KRAS G12D (Homo sapiens (Human), UniProt P01116+P62937, G12D); test: Ras-Raf disruption/FRET/MOA assay, KRAS G12D; format: biochemical
Procedure, shortened: as §5

NRAS Q61R = NRAS Q61R (Homo sapiens (Human), UniProt P01111+P62937, Q61R); test: Ras-Raf disruption/FRET/MOA assay, NRAS Q61R; format: biochemical
Description: as §6, §7, §3
as §4, with “12.5 nM,” for “12.5 nM”, “of anti-His” for “of Anti-His”

KRAS G12V = KRAS G12V (Homo sapiens (Human), UniProt P01116+P62937, G12V); test: Ras-Raf disruption/FRET/MOA assay, KRAS G12V; format: biochemical
Procedure, shortened: as §5

KRAS G13D = KRAS G13D (Homo sapiens (Human), UniProt P01116+P62937, G13D); test: Ras-Raf disruption/FRET/MOA assay, KRAS G13D; format: biochemical
Procedure, shortened: as §5

NRAS G12C = NRAS G12C (Homo sapiens (Human), UniProt P01111+P62937, G12C); test: Ras-Raf disruption/FRET/MOA assay, NRAS G12C; format: biochemical
Procedure, shortened: as §5

NRAS Q61K = NRAS Q61K (Homo sapiens (Human), UniProt P01111+P62937, Q61K); test: Ras-Raf disruption/FRET/MOA assay, NRAS Q61K; format: biochemical
Description: as §6, §7, §3
as §4, with “12.5 nM,” for “12.5 nM”, “of anti-His” for “of Anti-His”

AsPC-1 (K-Ras G12D) = test: Potency assay: pERK; format: cell-based, human; conditions: Homo sapiens, ASPC1; AsPC-1 KRAS G12D; read-out: pERK EC50
Procedure, shortened: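 pERK decrease measured after 4 h compound treatment at 37 °C (10 three-fold dilutions, duplicate wells), by either fixed-cell In-Cell Western with DRAQ5 counterstain or AlphaLISA on lysates. Signal fitted against log concentration with a four-parameter model to give IC50.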

KRAS G12C = KRAS G12C (Homo sapiens (Human), UniProt P01116+P62937, G12C); test: Ras-Raf disruption/FRET/MOA assay, KRAS G12C; format: biochemical
Procedure, shortened: as §5

NRAS WT = NRAS WT (Homo sapiens (Human), UniProt P01111+P62937); test: Ras-Raf disruption/FRET/MOA assay, NRAS WT; format: biochemical
Description: as §6, §7, §3
as §4, with “12.5 nM,” for “12.5 nM”, “of anti-His” for “of Anti-His”

KRAS G13C binding to BRAF RBD, sequence (P01116 other isoform, or with tags, fused parts or gaps G13C): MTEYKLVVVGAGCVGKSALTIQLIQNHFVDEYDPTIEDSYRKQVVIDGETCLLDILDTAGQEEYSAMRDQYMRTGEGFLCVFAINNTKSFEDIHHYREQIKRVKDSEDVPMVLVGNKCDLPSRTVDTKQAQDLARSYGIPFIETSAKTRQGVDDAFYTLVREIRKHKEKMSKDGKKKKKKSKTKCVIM
KRAS G13C binding to BRAF RBD, sequence (P62937 whole entry, the tested form may be a part): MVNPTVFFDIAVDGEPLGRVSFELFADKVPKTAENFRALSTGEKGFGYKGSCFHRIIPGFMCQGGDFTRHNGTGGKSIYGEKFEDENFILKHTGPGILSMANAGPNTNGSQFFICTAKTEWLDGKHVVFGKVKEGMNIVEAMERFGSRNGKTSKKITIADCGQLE
KRAS G12D, sequence (P01116 other isoform, or with tags, fused parts or gaps G12D): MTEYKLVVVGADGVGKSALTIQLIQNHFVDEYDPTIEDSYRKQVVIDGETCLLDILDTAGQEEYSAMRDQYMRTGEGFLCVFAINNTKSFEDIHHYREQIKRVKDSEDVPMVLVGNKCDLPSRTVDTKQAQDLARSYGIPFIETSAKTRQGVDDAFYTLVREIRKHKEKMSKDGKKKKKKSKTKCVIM
KRAS G12D, sequence (P62937 whole entry): as the sequence (P62937 whole entry, the tested form may be a part) above
KRAS G12S binding to BRAF RBD, sequence (P01116 other isoform, or with tags, fused parts or gaps G12S): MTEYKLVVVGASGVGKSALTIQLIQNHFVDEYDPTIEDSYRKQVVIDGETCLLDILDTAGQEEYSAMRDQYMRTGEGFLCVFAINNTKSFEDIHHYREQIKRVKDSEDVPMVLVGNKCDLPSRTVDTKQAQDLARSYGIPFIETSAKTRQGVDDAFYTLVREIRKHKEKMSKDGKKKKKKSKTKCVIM
KRAS G12S binding to BRAF RBD, sequence (P62937 whole entry): as the sequence (P62937 whole entry, the tested form may be a part) above
KRAS G12S, sequence (P01116 other isoform, or with tags, fused parts or gaps G12S): as the sequence (P01116 other isoform, or with tags, fused parts or gaps G12S) above
KRAS G12S, sequence (P62937 whole entry): as the sequence (P62937 whole entry, the tested form may be a part) above
KRAS G12V, sequence (P01116 other isoform, or with tags, fused parts or gaps G12V): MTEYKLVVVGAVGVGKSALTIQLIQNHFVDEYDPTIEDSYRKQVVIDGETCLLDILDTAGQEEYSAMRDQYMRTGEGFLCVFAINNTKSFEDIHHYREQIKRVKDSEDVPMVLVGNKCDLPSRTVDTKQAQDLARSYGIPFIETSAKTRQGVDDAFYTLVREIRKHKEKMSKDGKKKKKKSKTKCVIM
KRAS G12V, sequence (P62937 whole entry): as the sequence (P62937 whole entry, the tested form may be a part) above
KRAS G12C, sequence (P01116-2 other isoform, or with tags, fused parts or gaps G12C): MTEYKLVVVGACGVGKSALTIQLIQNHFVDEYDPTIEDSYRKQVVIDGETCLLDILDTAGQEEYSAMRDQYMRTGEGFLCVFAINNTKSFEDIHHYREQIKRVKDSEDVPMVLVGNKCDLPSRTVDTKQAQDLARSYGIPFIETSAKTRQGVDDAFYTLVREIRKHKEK
KRAS G12C, sequence (P62937 whole entry): as the sequence (P62937 whole entry, the tested form may be a part) above
NRAS WT, sequence (P01111 whole entry): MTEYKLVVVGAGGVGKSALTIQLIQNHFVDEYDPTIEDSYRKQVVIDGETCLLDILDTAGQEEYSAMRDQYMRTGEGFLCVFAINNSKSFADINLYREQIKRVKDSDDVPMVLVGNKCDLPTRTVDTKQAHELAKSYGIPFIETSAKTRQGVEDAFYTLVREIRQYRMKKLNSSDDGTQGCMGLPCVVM
NRAS WT, sequence (P62937 whole entry): as the sequence (P62937 whole entry, the tested form may be a part) above
NRAS Q61K, sequence (P01111 whole entry Q61K): as the sequence (P01111 whole entry) above, with Q61K counted along it
NRAS Q61K, sequence (P62937 whole entry): as the sequence (P62937 whole entry, the tested form may be a part) above
KRAS WT, sequence (P01116 other isoform, or with tags, fused parts or gaps): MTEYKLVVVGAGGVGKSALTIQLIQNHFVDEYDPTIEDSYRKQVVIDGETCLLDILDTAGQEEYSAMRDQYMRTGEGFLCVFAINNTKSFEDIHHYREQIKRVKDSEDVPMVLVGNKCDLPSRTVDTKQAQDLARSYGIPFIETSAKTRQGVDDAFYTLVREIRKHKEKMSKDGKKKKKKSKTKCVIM
KRAS WT, sequence (P62937 whole entry): as the sequence (P62937 whole entry, the tested form may be a part) above
KRAS WT binding to BRAF RBD, sequence (P01116 other isoform, or with tags, fused parts or gaps): as the sequence (P01116 other isoform, or with tags, fused parts or gaps) above
KRAS WT binding to BRAF RBD, sequence (P62937 whole entry): as the sequence (P62937 whole entry, the tested form may be a part) above
KRAS G13D, sequence (P01116 other isoform, or with tags, fused parts or gaps G13D): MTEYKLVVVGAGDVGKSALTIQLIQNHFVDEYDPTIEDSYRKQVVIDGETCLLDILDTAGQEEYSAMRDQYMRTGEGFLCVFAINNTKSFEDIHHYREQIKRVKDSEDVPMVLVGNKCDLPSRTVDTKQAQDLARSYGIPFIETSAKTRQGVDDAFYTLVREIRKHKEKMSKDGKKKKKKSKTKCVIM
KRAS G13D, sequence (P62937 whole entry): as the sequence (P62937 whole entry, the tested form may be a part) above
KRAS G13C, sequence (P01116 other isoform, or with tags, fused parts or gaps G13C): as the sequence (P01116 other isoform, or with tags, fused parts or gaps G13C) above
KRAS G13C, sequence (P62937 whole entry): as the sequence (P62937 whole entry, the tested form may be a part) above
NRAS G12C, sequence (P01111 whole entry G12C): as the sequence (P01111 whole entry) above, with G12C counted along it
NRAS G12C, sequence (P62937 whole entry): as the sequence (P62937 whole entry, the tested form may be a part) above
NRAS G12C binding to BRAF RBD, sequence (P01111 whole entry G12C): as the sequence (P01111 whole entry) above, with G12C counted along it
NRAS G12C binding to BRAF RBD, sequence (P62937 whole entry): as the sequence (P62937 whole entry, the tested form may be a part) above

SMILES: COC1(C(=O)N2Cc3nc(Cl)nc(C[C@H](C)c4cc(N)cc(C(F)(F)F)c4)c3C2)CCOCC1 [Compound SOS1-(A)]
- inhibition of tumor growth in vivo [1]: substantially higher levels of tumor growth inhibition
- inhibition of tumor growth in vivo [2]: near complete inhibition of tumor growth
- inhibition of tumor growth in vivo (LN229 tumors (SHP2 A72S)): near complete inhibition of tumor growth

SMILES: CCn1c(-c2cnccc2COC)c2c3cc(ccc31)-c1cc(O)cc(c1)C[C@H](NC(=O)[C@H](C(C)C)N(C)C(=O)[C@H]1CCN(C(=O)C#CCN(C)C)C1)C(=O)N1CCC[C@H](N1)C(=O)OCC(C)(C)C2 [Compound A107]
- IC50 [3]: < 10 nM
- IC50 [4]: < 10 nM

SMILES: CC(=O)Nc1cccc(-n2c(=O)n(C3CC3)c(=O)c3c(Nc4ccc(I)cc4F)n(C)c(=O)c(C)c32)c1 [trametinib]
- EC50 (NCI-H358 cells): 10 nM

SMILES: CCn1c(-c2cccnc2[C@H](C)OC)c2c3cc(ccc31)-c1csc(n1)C[C@H](NC(=O)[C@H](C(C)C)N(C)C(=O)N1CC(C)(OC)C1)C(=O)N1CCC[C@H](N1)C(=O)OCC(C)(C)C2 [Compound A299]
- IC50 [5]: 10 to 100 nM
- IC50 (NCI-H358 (K-Ras G12C)): < 10 nM
- IC50 [6]: < 10 nM
- IC50 [4]: < 10 nM
- EC50 [7]: < 5000 nM
- IC50 [8]: 10 to 100 nM

SMILES: CCn1c(-c2cccnc2[C@H](C)OC)c2c3cc(ccc31)-c1cc(O)cc(c1)C[C@H](NC(=O)[C@@H](C(C)C)N(C)C(=O)[C@@]1(C)CCCN1C(=O)[C@@H]1CN1)C(=O)N1CCC[C@H](N1)C(=O)OCC(C)(C)C2 [Example 242]
- IC50 (KRAS WT): 100 to 1000 nM
- IC50 (KRAS G12S): 100 to 1000 nM
- IC50 (KRAS Q61H): 100 to 1000 nM
- IC50 (KRAS G13C): 1000 to 10000 nM
- IC50 (KRAS G12D): 100 to 1000 nM
- IC50 (NRAS Q61R): 1000 to 10000 nM
- IC50 (KRAS G12V): 1000 to 10000 nM
- IC50 (KRAS G13D): 100 to 1000 nM
- IC50 (NRAS G12C): 100 to 1000 nM
- IC50 (NRAS Q61K): 1000 to 10000 nM
- EC50 (AsPC-1 (K-Ras G12D)): < 5000 nM
- IC50 (KRAS G12C): 100 to 1000 nM
- IC50 (NRAS WT): 100 to 1000 nM
